Measured values published in PubChem BioAssay AID2060499 (Molecular Pharmacology Branch, DTP, NCI, 2025).
Where “and” joins values, the source holds several entries; their conditions need not be identical. Equal values may be shown once.

Tested on: 777334-354-R2-J4-PDC tumor spheroids with HUVEC/MSC, viability
Assay: Anticancer human tumor 777334-354-R2-J4-PDC patient-derived pancreatic adenocarcinoma cell line growth inhibition [GQUAD]
Settings: for viability, T/C: stronger effect = lower value
Source text: DNA G-quadruplex Stabilizer Agents in Combinations in Complex Spheroids
A high-throughput screen of multi-cell type tumor spheroids was designed to identify active combinations of DNA G-quadruplex stabilizer agents and targeted small molecules. Complex spheroids include a stromal component modeled by human endothelial cells (HUVEC) and fibroblasts modeled by human mesenchymal stem cells (MSCs). The concentration ranges selected for each drug and investigational agent were based upon clinically achievable concentrations if the clinical Cmax of the agent was known.
Compounds. The drugs and investigational agents: pidnarulex (CX-5461; NSC782164), APTO-253 (NSC789042), BRACO-19 (NSC847499), peposertib (NSC802822), ceralasertib (NSC780249), elimusertib (NSC800525), camonsertib (NSC841442), AZD-1390 (NSC803789), olaparib (NSC753686), talazoparib (NSC767125), ART-558 (NSC835418), sotorasib (NSC818433), MRTX-1133 (NSC836407), SN-38 (NSC673596), topotecan (NSC609699), etoposide (NSC141540), doxorubicin (NSC123127), gemcitabine (NSC613327), 5-fluorouracil (NSC19893), paclitaxel (NSC125973), vemurafenib (NSC761431), panobinostat (NSC761190), R-306465 (JNJ-16241199; NSC773264), adavosertib (NSC754352), TP-3654 (NSC805149), carboplatin (NSC241240), KSQ-4279 (NSC840948), and staurosporine (NSC755774) were obtained from the National Cancer Institute (NCI) Developmental Therapeutics Program Chemical Repository (34). The FDA-approved anticancer drug set is available from the NCI Developmental Therapeutics Program. […] The stock solutions were prepared in dimethyl sulfoxide (DMSO, Sigma-Aldrich, St. Louis, MO, cat. D2650) at 800-fold the tested concentration and stored at -70 degrees C prior to their use. All drugs and investigational agents were tested over a range starting from a high concentration at or near the clinical Cmax and decreasing in half-log increments. If the clinical Cmax for an agent had not been determined, the highest concentration tested was 10 microM.
2.3 Cell Culture. All cells were maintained in an incubator at 37 degrees C and 5% CO2 with 95% humidity. The PDC lines were cultured according to standard operating procedures established by the NCI PDMR. All PDCs were thawed and cultured in Matrigel-coated flasks prepared with a working solution of 1X Ham's F-12 nutrient mix, without supplementation (Invitrogen, cat. 11765054), 100 U/mL penicillin-streptomycin (Invitrogen, cat. 15140122), and 2.5% Matrigel (Corning Inc., cat. 354248) for the first three passages. The 857933-349-R-J2-PDC line was cultured in 6C/Colon 1B media, which includes advanced DMEM/F-12 (Thermo Fisher Scientific, cat. 12634028), 10 mM HEPES (Thermo Fisher Scientific, cat. 15630080), 1X GlutaMAX supplement (Thermo Fisher Scientific, cat. 35050061), 0.1 mg/mL primocin (InvivoGen, cat. ant-pm-2), 10% defined fetal bovine serum, heat inactivated (HyClone Laboratories Inc., cat. SH30070.03HI), 50% L-WRN conditioned media (ATCC, cat. CRL-3276), 1.25 mM N-Acetyl-L-cysteine (Sigma-Aldrich, cat. A9165), 10 mM nicotinamide (Sigma-Aldrich, cat. N0636), 1X B-27 supplement (Thermo Fisher Scientific, cat. 17504044), 1X N-2 supplement (Thermo Fisher Scientific, cat. 17502048), 10 microM Y-27632 dihydrochloride (Tocris Bioscience, cat. 1254), and 50 ng/mL human EGF recombinant protein (Thermo Fisher Scientific, cat. PHG0311). The 485176-168-R4-J1-PDC line was cultured in Panc media, which includes all 6C/Colon 1B media components plus 100 ng/mL human FGF-10 (Thermo Fisher Scientific, cat. 100-26), 500 nM SB-431542 (Selleckchem, cat. S1067), and gastrin (Tocris, cat. 3006).
[…]
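Note: spheroids exposed to compounds for 7 days before readout.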

## CC(C)n1c(=O)n(C)c2cnc3cc(F)c(-c4ccc(OCCCN5CCCCC5)nc4)cc3c21
Compound 0.0316 µM
  viability, T/C: 105% and 94.1% and 104%
Compound 0.1 µM
  viability, T/C: 106% and 95% and 101%
Compound 0.316 µM
  viability, T/C: 113% (2×) and 111%
Compound 1 µM
  viability, T/C: 104% and 99.3% and 108%
Compound 3.16 µM
  viability, T/C: 110% and 98.5% and 112%
Compound 10 µM
  viability, T/C: 101% and 94.6% and 86.2%
Curve of compound
  IC50: > 10 µM

## Cc1[nH]c2ccccc2c1CCNCc1ccc(/C=C/C(=O)NO)cc1 + Cc1[nH]c2ccc(F)cc2c1-c1nc2c3cccnc3c3ncccc3c2[nH]1
Curve of first compound, second compound 0.0316 µM
  IC50: 0.189 µM
Curve of first compound, second compound 0.1 µM
  IC50: 0.215 µM
Curve of first compound, second compound 0.316 µM
  IC50: 0.207 µM
Curve of first compound, second compound 1 µM
  IC50: 0.176 µM
Curve of first compound, second compound 3.16 µM
  IC50: < 0.000999 µM
Curve of first compound, second compound 10 µM
  IC50: < 0.000999 µM
Second compound 0.0316 µM, first compound 0.000999 µM
  viability, T/C: 114%
Second compound 0.0316 µM, first compound 0.00316 µM
  viability, T/C: 91.3%
Second compound 0.0316 µM, first compound 0.00999 µM
  viability, T/C: 103%
Second compound 0.0316 µM, first compound 0.0316 µM
  viability, T/C: 78.2%
Second compound 0.0316 µM, first compound 0.0999 µM
  viability, T/C: 74.5%
Second compound 0.0316 µM, first compound 0.316 µM
  viability, T/C: 33.8%
Second compound 0.1 µM, first compound 0.000999 µM
  viability, T/C: 103%
Second compound 0.1 µM, first compound 0.00316 µM
  viability, T/C: 94%
Second compound 0.1 µM, first compound 0.00999 µM
  viability, T/C: 102%
Second compound 0.1 µM, first compound 0.0316 µM
  viability, T/C: 90.6%
Second compound 0.1 µM, first compound 0.0999 µM
  viability, T/C: 73.1%
Second compound 0.1 µM, first compound 0.316 µM
  viability, T/C: 38.5%
Second compound 0.316 µM, first compound 0.000999 µM
  viability, T/C: 90.2%
Second compound 0.316 µM, first compound 0.00316 µM
  viability, T/C: 92.2%
Second compound 0.316 µM, first compound 0.00999 µM
  viability, T/C: 109%
Second compound 0.316 µM, first compound 0.0316 µM
  viability, T/C: 92.7%
Second compound 0.316 µM, first compound 0.0999 µM
  viability, T/C: 79%
Second compound 0.316 µM, first compound 0.316 µM
  viability, T/C: 33.1%
Second compound 1 µM, first compound 0.000999 µM
  viability, T/C: 97.9%
Second compound 1 µM, first compound 0.00316 µM
  viability, T/C: 80.3%
Second compound 1 µM, first compound 0.00999 µM
  viability, T/C: 78.4%
Second compound 1 µM, first compound 0.0316 µM
  viability, T/C: 91.2%
Second compound 1 µM, first compound 0.0999 µM
  viability, T/C: 70.4%
Second compound 1 µM, first compound 0.316 µM
  viability, T/C: 29.2%
Second compound 3.16 µM, first compound 0.000999 µM
  viability, T/C: 46%
Second compound 3.16 µM, first compound 0.00316 µM
  viability, T/C: 37.7%
Second compound 3.16 µM, first compound 0.00999 µM
  viability, T/C: 41%
Second compound 3.16 µM, first compound 0.0316 µM
  viability, T/C: 49.3%
Second compound 3.16 µM, first compound 0.0999 µM
  viability, T/C: 52.5%
Second compound 3.16 µM, first compound 0.316 µM
  viability, T/C: 38.7%
Second compound 10 µM, first compound 0.000999 µM
  viability, T/C: 46.3%
Second compound 10 µM, first compound 0.00316 µM
  viability, T/C: 24.8%
Second compound 10 µM, first compound 0.00999 µM
  viability, T/C: 38.9%
Second compound 10 µM, first compound 0.0316 µM
  viability, T/C: 35%
Second compound 10 µM, first compound 0.0999 µM
  viability, T/C: 41.6%
Second compound 10 µM, first compound 0.316 µM
  viability, T/C: 32.1%

## Cn1ncnc1[C@H]1c2n[nH]c(=O)c3cc(F)cc(c23)N[C@@H]1c1ccc(F)cc1
Compound 0.000999 µM
  viability, T/C: 95.4% and 87.7% and 92.6%
Compound 0.00316 µM
  viability, T/C: 103% and 99.5% and 94.9%
Compound 0.00999 µM
  viability, T/C: 99% and 100% and 110%
Compound 0.0316 µM
  viability, T/C: 87.2% and 95.5% and 87.8%
Compound 0.0999 µM
  viability, T/C: 87.4% and 104% and 112%
Compound 0.316 µM
  viability, T/C: 97.3% and 83.1% and 102%
Curve of compound
  IC50: > 0.316 µM

## CCCS(=O)(=O)Nc1ccc(F)c(C(=O)c2c[nH]c3ncc(-c4ccc(Cl)cc4)cc23)c1F
Compound 0.0316 µM
  viability, T/C: 107% and 111% and 99.5%
Compound 0.1 µM
  viability, T/C: 109% and 105% and 92.8%
Compound 0.316 µM
  viability, T/C: 114% and 127% and 108%
Compound 1 µM
  viability, T/C: 110% and 120% and 102%
Compound 3.16 µM
  viability, T/C: 98.7% and 115% and 111%
Compound 10 µM
  viability, T/C: 37.2% and 34.2% and 33.4%
Curve of compound
  IC50: 7.89 µM and 7.98 µM and 7.6 µM

## COc1cc(C2c3cc4c(cc3C(OC3OC5COC(C)OC5C(O)C3O)C3COC(=O)C23)OCO4)cc(OC)c1O (stereo not given)
Compound 0.0316 µM
  viability, T/C: 94.6% and 85% and 95.3%
Compound 0.1 µM
  viability, T/C: 88.4% and 97.9% and 91.6%
Compound 0.316 µM
  viability, T/C: 88.8% and 89.8% and 94.8%
Compound 1 µM
  viability, T/C: 71.9% and 74.2% and 72.8%
Compound 3.16 µM
  viability, T/C: 69.3% and 64% and 61.6%
Compound 10 µM
  viability, T/C: 41.3% and 38.2% and 35.7%
Curve of compound
  IC50: 6.82 µM and 5.69 µM and 5.03 µM
